8 compounds from patent publication US8361988B2, “Nucleoside and nucleotide analogues with quaternary carbon centers and methods of use” (Institut de Recherches Cliniques de Montreal, priority 2007, dated 2013) can be followed below.

The CC50 is the concentration that lowers cell viability or growth by half. A low value points to harm at low concentration. As usually defined, the EC50 is the concentration giving half of the maximal effect.

A short description of data set [1]: MTT cell proliferation assay, Panc 02.03. The format is cell-based. The settings on record: human, Panc 02.03 cells, concentration causing 50% cell death of initial cell count over 24 hours, 1% DMSO. How it is done:
(§1) The antitumor activities of the compounds of the invention were evaluated by a cellular proliferation assay. […] The cleavage reaction form a purple formazan crystals which is largely impermeable to cell membranes resulting in its accumulation within healthy cells. Solubilisation of the cells by addition of a detergent liberates and solubilizes the formazan crystals. The number of surviving cells is directly proportional to the level of the formazan product created. The color can then be quantified spectrophotometrically. The production of purple formazan in cells treated with a compound is measured relative to the production in control cells, and dose-response curves can be generated. This assay measures the cell proliferation rate and conversely, when metabolic events lead to apoptosis or necrosis, the reduction in cell viability, thus also allowing the evaluation of the cytotoxicity of the analogues synthesized in the laboratory.
(§2) For Tables 3 and 4, the assays were performed with 1% DMSO. The abbreviation “n.d.” means “not determined.” The values EC50, CC50, and SI have the following definitions.
(§3) Cell growth equals total cell count without any inhibitor after 72 hours minus initial cell count.
(§4) SI: Selectivity Index is the ratio CC50/EC50.

Another data set concerns Panc 02.03. In words: MTT cell proliferation assay, Panc 02.03. The format is cell-based. The settings on record: Homo sapiens, concentration reducing cell growth by 50% after 72 hours, 1% DMSO. How it is done: as §1, §2, §3, §4
On the technique in general: Tetrazolium dyes change colour on reduction, which living cells bring about.

A short description of data set [2]: MTT cell proliferation assay, PFSK-1. The format is cell-based. The settings on record: human, PFSK-1 cells, concentration causing 50% cell death of initial cell count over 24 hours, 1% DMSO. The procedure: as §1, §2, §3, §4
The subject of another data set is PFSK-1. As to the kind of experiment: MTT cell proliferation assay, PFSK-1. As to conditions: Homo sapiens, concentration reducing cell growth by 50% after 72 hours, 1% DMSO. The format is cell-based. How it is done: as §1, §2, §3, §4
Data set [3] is described as follows: MTT cell proliferation assay, ZR-75-1. The settings on record: human, ZR-75-1 cells, concentration causing 50% cell death of initial cell count over 24 hours, 1% DMSO. The format is cell-based. The procedure: (§5) The antitumor activities of the compounds of the invention were evaluated by a cellular proliferation assay. The MTT [3-(4,5-dimethylthiazol-2-yl)-2,5-diphenyltetrazolium bromide] cell proliferation assay, first described by Mosmann (Mosmann T., “Rapid colorimetric assay for cellular growth and survival: application to proliferation and cytotoxicity assays,” J. Immunol. Methods 1983 Dec. 16; 65(1-2):55-63, and incorporated by reference in its entirety) is based on the ability of active mitochondrial reductase enzymes from viable cells to cleave the tetrazolium rings of the pale yellow MTT. The cleavage reaction form a purple formazan crystals which is largely impermeable to cell membranes resulting in its accumulation within healthy cells. Solubilisation of the cells by addition of a detergent liberates and solubilizes the formazan crystals. The number of surviving cells is directly proportional to the level of the formazan product created. The color can then be quantified spectrophotometrically. The production of purple formazan in cells treated with a compound is measured relative to the production in control cells, and dose-response curves can be generated. This assay measures the cell proliferation rate and conversely, when metabolic events lead to apoptosis or necrosis, the reduction in cell viability, thus also allowing the evaluation of the cytotoxicity of the analogues synthesized in the laboratory.
as §2
(§6) Cell growth equals total cell count without any inhibitor after 72 hours minus initial cell count. Total cell counts after 72 hrs of growth range from 230 to 346% of initial cell counts depending on the cell line.
(§7) Total cell counts after 24 hrs of growth range from 103 to 109% of initial cell counts depending on the cell line.
as §4

The next data set deals with ZR-75-1. As to the kind of experiment: MTT cell proliferation assay, ZR-75-1. The settings on record: Homo sapiens, concentration reducing cell growth by 50% after 72 hours, 1% DMSO. The format is cell-based. How it is done: as §5, §2, §6, §7, §4
For data set [4], the target named is T1, Drosophila melanogaster dNK (Drosophila melanogaster, UniProt Q9XZT6).
T1 sequence (Q9XZT6 1-250): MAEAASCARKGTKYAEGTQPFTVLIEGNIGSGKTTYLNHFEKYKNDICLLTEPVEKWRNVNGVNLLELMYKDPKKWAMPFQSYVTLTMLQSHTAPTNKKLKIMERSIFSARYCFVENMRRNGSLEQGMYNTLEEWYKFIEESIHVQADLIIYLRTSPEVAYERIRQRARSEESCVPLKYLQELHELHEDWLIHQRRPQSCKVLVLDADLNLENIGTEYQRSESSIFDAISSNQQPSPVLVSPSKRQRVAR
As to the kind of experiment: Phosphorylation assay (spectrophotometric coupled-enzyme), D. melanogaster dNK. The format is biochemical. The settings on record: substrate at 100 μM, 37° C., 1 mM ATP, triplicate. The procedure:
(§8) Compounds of the invention were also tested in a phosphorylation assay using three deoxynucleoside kinases. […] The compounds were at substrate concentration of 100 μM.
(§9) Kinetic assay. […] Briefly, the individual nucleosides at 100 μM were prepared in reaction buffer containing 50 mM Tris-HCl (pH 7.5), 0.1 M KCl, 5 mM MgCl2, 1 mM DTT, 1 mM ATP, 0.21 mM phosphoenolpyruvate, 0.18 mM NADH, and 2 units/ml pyruvate kinase and 2 units/ml lactate dehydrogenase (Roche Biochemicals, Indianapolis, Ind.). Assays were performed at 37° C. by measuring the absorbance change at 340 nm. The enzyme amount was adjusted to limit NADH turnover to 10% over the time of the experiment. All experiments were performed in triplicate.

Data set [5] concerns the target Thermotoga maritima thymidine kinase (Thermotoga maritima, UniProt Q9WYN2). As to the kind of experiment: Phosphorylation assay (spectrophotometric coupled-enzyme), T. maritima TK. The format is biochemical. The settings on record: substrate at 100 μM, 37° C., 1 mM ATP, triplicate. How it is done:
Compounds of the invention were also tested in a phosphorylation assay using three deoxynucleoside kinases. The kinases include human dCK, which is responsible for the activation of numerous nucleoside analog prodrugs; Drosophila melanogaster dNK, which is the fastest known kinases with the broadest substrate specificity profile; and Thermotoga maritima thymidine kinase, which is a good surrogate for human thymidine kinase 1, a member of the distinct type II kinase subfamily. The compounds were at substrate concentration of 100 μM.
Kinetic assay. Substrate phosphorylation was determined using a spectrophotometric coupled-enzyme assay (Munch-Petersen et al. (2000) J. Biol. Chem. vol. 275p. 66′73-66′79; Schelling et al. (2001) Anal. Biochem vol. 295 p. 82-8′7). Briefly, the individual nucleosides at 100 μM were prepared in reaction buffer containing 50 mM Tris-HCl (pH 7.5), 0.1 M KCl, 5 mM MgCl2, 1 mM DTT, 1 mM ATP, 0.21 mM phosphoenolpyruvate, 0.18 mM NADH, and 2 units/ml pyruvate kinase and 2 units/ml lactate dehydrogenase (Roche Biochemicals, Indianapolis, Ind.). Assays were performed at 37° C. by measuring the absorbance change at 340 nm. The enzyme amount was adjusted to limit NADH turnover to 10% over the time of the experiment. All experiments were performed in triplicate.

Data set [6] in a line: in vitro. As to conditions: human, NCI H1395 cells.
The nature of data set [7]: in vitro. As to conditions: human, NCI H2052 cells.
The next data set addresses human dCK (Homo sapiens, UniProt P27707). In words: Phosphorylation assay (spectrophotometric coupled-enzyme), human dCK. The format is biochemical. The settings on record: substrate at 100 μM; 37° C.; 1 mM ATP; triplicate. The procedure: as §8, §9
Data set [8] is described as follows: in vitro. The settings on record: human, MOLT-4 cells.

Chain of Thermotoga maritima thymidine kinase (Q9WYN2 whole entry): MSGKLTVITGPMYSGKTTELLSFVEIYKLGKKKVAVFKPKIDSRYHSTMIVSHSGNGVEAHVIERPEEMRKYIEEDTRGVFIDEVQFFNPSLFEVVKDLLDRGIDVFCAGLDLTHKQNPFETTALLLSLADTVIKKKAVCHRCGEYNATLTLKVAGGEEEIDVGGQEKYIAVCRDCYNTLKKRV
Chain of human dCK (P27707 whole entry): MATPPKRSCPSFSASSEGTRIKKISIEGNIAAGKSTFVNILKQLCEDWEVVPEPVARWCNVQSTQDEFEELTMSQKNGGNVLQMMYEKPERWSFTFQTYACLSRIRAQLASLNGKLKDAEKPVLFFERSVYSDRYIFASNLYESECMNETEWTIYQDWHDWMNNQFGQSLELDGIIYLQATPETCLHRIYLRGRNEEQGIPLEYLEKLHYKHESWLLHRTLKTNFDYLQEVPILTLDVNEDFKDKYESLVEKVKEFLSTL

In the case of `COC(=O)C1(C)C[C@H](n2cc(C)c(=O)[nH]c2=O)O[C@@H]1CO` (mixture of isomers) [LCB-1009, (±) methyl 2-(hydroxymethyl)-3-methyl-5-(5-methyl-2,4-dioxo-3,4-dihydropyrimidin-1(2H)-yl)tetrahydrofuran-3-carboxylate], the CC50 at 24 h (in data set [1]; in data set [2]; in data set [3]; in the data set “in vitro [6]”; in “in vitro [7]”) was more than 500 µM in each case. Also, the EC50 is more than 500 µM in the data set with Panc 02.03; more than 500 µM in the data set with PFSK-1 (PFSK-1, 72 h); more than 500 µM in the data set on ZR-75-1 (ZR-75-1, 72 h). The “D. melanogaster dNK substrate phosphorylation” value in data set [4] (listed as LCB-1009-1) was 3.49 10^6 μmol/min mg. The “T. maritima TK substrate phosphorylation” value in data set [5] (listed as LCB-1009-1) is recorded as 11.9 10^−3 μmol/min mg.
Take `COC(=O)C1(C)CC(n2cc(C)c(=O)[nH]c2=O)OC1CO` (racemic) [LCB-1010, (±) methyl 2-(hydroxymethyl)-3-methyl-5-(5-methyl-2,4-dioxo-3,4-dihydropyrimidin-1(2H)-yl)tetrahydrofuran-3-carboxylate]: the CC50 at 24 h (in data set [1]; in data set [2]; in [3]; in “in vitro [6]”; in “in vitro [7]”) was more than 500 µM in each case. Also, the EC50 in the data set with Panc 02.03 was more than 500 µM; in the data set on PFSK-1 (PFSK-1, 72 h), more than 500 µM; in the data set on ZR-75-1 (ZR-75-1, 72 h), 180 µM. Besides, in data set [4] (listed as LCB-1010-1), the “D. melanogaster dNK substrate phosphorylation” value is recorded as 2.84 10^6 μmol/min mg. The “T. maritima TK substrate phosphorylation” value in data set [5] (listed as LCB-1010-1) is given as 6 10^−3 μmol/min mg.
For the compound `CC1(CO)C[C@H](n2ccc(N)nc2=O)O[C@@H]1CO` (mixture of isomers) [LCB-1011], the half-maximal cytotoxic concentration (CC50) at 24 h (in [2]; in data set [3]; in “in vitro [6]”; in “in vitro [7]”) was more than 500 µM throughout. Also, the 50% effective concentration (EC50) was more than 500 µM in the data set with PFSK-1 (PFSK-1, 72 h) and more than 500 µM in the data set with ZR-75-1 (ZR-75-1, 72 h). The “Human dCK kinase substrate phosphorylation” value on human dCK was 12 10^−3 μmol/min mg. The “D. melanogaster dNK substrate phosphorylation” value in [4] was 0.35 10^6 μmol/min mg.
`CC1(CO)CC(n2ccc(N)nc2=O)O[C@@H]1CO` (mixture of isomers) [LCB-1012]: the CC50 at 24 h (in data set [2]; in data set [3]; in “in vitro [6]”; in “in vitro [7]”) was more than 500 µM throughout. Also, the concentration for a half-maximal effect (EC50) is more than 500 µM in the data set with PFSK-1 (PFSK-1, 72 h) and more than 500 µM in the data set with ZR-75-1 (ZR-75-1, 72 h). At human dCK, the “Human dCK kinase substrate phosphorylation” value is on record as 17 10^−3 μmol/min mg. The “D. melanogaster dNK substrate phosphorylation” value in data set [4] was 5.94 10^6 μmol/min mg.
As for `COC(=O)C1(C)C[C@H](n2cc(F)c(=O)[nH]c2=O)O[C@@H]1CO` (mixture of isomers) [LCB-1015, 5-(5-Fluoro-2,4-dioxo-3,4-dihydro-2H-pyrimidin-1-yl)-2-hydroxymethyl-3-methyl-tetrahydro-furan-3-carboxylic acid methyl ester], the 50% cytotoxic concentration (CC50) at 24 h (in [1]; in [2]; in [3]; in the data set “in vitro [6]”; in the data set “in vitro [7]”) was more than 500 µM each time. The EC50 with Panc 02.03 was more than 500 µM; in the data set with PFSK-1 (PFSK-1, 72 h) it was 380 µM; in the data set with ZR-75-1 (ZR-75-1, 72 h), 420 µM. Further, in data set [4] (listed as LCB-1015-1), the “D. melanogaster dNK substrate phosphorylation” value was <0.1 10^6 μmol/min mg. Further, the “T. maritima TK substrate phosphorylation” value in data set [5] (listed as LCB-1015-1) is recorded as <1 10^−3 μmol/min mg.
For `CC1(C(N)=O)CC(n2ccc(N)nc2=O)O[C@@H]1CO` (mixture of isomers) [LCB-1018], the CC50 at 24 h (in data set [1]; in data set [2]; in data set [3]; in the data set “in vitro [6]”; in “in vitro [7]”) was more than 500 µM in each case. Further, the EC50 in the data set with Panc 02.03 is more than 500 µM; with PFSK-1 (PFSK-1, 72 h), more than 500 µM; with ZR-75-1 (ZR-75-1, 72 h), more than 500 µM. The “Human dCK kinase substrate phosphorylation” value on human dCK is on record as 63 10^−3 μmol/min mg. Besides, the “D. melanogaster dNK substrate phosphorylation” value in [4] was 0.2 10^6 μmol/min mg.
As to `Nc1ccn([C@@H]2O[C@H](CO)[C@@H](O)[C@@H]2O)c(=O)n1` [Cytarabine, reference compound], the CC50 at 24 h is more than 500 µM in [1]; more than 500 µM in data set [2]; more than 500 µM in [3]; more than 500 µM in “in vitro [8]”; 428 µM in “in vitro [6]”; more than 500 µM in the data set “in vitro [7]”. For the same compound, the EC50 in the data set with Panc 02.03 is 300 µM; with PFSK-1 it was 360 µM; in the data set on ZR-75-1, more than 500 µM.
As to `COC(=O)c1cn([C@H]2S[C@@H](CO)C(O)[C@@H]2O)nn1` (stereo partly shown) [LCB-1013], the “Human dCK kinase substrate phosphorylation” value at human dCK is recorded as <1 10^−3 μmol/min mg. For the same compound, the “D. melanogaster dNK substrate phosphorylation” value in [4] was <0.1 10^6 μmol/min mg.
